# Measurements published in patent US20240269139A1, “COMPOUNDS FOR TARGETED PROTEIN DEGRADATION OF KINASES” (DANA-FARBER CANCER INSTITUTE, INC., priority 2020, published 2024).
# Read-outs that look alike come from different tables or passages of the source.
# Legend:
# Assay type in all cases: cell-based
# [1] = molecular target: protein kinases (human kinome) (Homo sapiens, UniProt Q15118); details: PDK1 Q15118
# [2] = molecular target: protein kinases (human kinome) (Homo sapiens, UniProt Q15119); details: for logFC PDK2: Accession Q15119-1
# [3] = molecular target: T1, protein kinases (human kinome) (Homo sapiens, UniProt Q4G0N4); details: Accession Q4GON4, direction down
# T1 sequence (Q4G0N4 63-442): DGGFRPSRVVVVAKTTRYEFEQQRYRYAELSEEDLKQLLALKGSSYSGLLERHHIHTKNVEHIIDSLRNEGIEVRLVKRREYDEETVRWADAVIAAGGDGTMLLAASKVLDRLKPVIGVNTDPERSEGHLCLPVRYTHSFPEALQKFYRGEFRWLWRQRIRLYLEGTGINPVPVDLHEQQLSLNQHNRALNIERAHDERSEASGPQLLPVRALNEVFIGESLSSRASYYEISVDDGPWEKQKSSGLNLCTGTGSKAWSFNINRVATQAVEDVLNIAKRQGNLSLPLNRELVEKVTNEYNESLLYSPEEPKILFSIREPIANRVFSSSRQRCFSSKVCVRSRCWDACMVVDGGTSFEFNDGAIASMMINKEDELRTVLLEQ
# [4] = molecular target: protein kinases (human kinome) (Homo sapiens, UniProt Q8NI60)
# [5] = molecular target: protein kinases (human kinome) (Homo sapiens, UniProt P07947); details: YES1 (P07947), experiment wp168
# [6] = molecular target: protein kinases (human kinome) (Homo sapiens, UniProt P42684)
# [7] = molecular target: protein kinases (human kinome) (Homo sapiens, UniProt P45984); details: MAPK9 P45984-1; experiment wp168
# [8] = molecular target: protein kinases (human kinome) (Homo sapiens, UniProt P51812); details: RPS6KA3 (P51812), experiment wp168
# [9] = molecular target: protein kinases (human kinome) (Homo sapiens, UniProt Q07912)
# [10] = molecular target: protein kinases (human kinome) (Homo sapiens, UniProt Q16539)
# Chain of protein kinases (human kinome) (Homo sapiens, UniProt Q15118) (Q15118 29-436): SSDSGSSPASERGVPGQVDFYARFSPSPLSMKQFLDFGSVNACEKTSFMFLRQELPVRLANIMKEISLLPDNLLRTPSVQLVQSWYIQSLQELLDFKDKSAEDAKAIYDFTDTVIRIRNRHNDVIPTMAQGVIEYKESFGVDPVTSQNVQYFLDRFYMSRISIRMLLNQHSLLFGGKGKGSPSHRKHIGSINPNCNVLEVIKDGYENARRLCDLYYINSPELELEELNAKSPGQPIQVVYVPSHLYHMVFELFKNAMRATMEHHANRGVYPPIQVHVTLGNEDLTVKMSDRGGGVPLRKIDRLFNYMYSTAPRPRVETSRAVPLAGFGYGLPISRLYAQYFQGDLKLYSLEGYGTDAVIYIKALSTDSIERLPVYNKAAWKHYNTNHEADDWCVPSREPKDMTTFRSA
# Chain of protein kinases (human kinome) (Homo sapiens, UniProt Q8NI60) (Q8NI60 163-647): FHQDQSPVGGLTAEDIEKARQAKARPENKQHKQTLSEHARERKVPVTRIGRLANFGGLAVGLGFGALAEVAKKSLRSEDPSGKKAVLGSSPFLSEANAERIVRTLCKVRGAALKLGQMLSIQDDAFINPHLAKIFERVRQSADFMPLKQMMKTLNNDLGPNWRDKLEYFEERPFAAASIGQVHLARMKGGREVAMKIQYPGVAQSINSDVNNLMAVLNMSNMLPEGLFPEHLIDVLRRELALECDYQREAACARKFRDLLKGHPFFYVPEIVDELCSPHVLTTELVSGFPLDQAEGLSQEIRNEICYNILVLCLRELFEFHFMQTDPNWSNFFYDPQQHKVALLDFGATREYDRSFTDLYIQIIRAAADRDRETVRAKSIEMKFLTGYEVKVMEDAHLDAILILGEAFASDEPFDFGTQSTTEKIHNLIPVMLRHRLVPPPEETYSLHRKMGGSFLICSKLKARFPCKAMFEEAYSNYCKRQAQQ
# Chain of protein kinases (human kinome) (Homo sapiens, UniProt P45984) (P45984 whole entry): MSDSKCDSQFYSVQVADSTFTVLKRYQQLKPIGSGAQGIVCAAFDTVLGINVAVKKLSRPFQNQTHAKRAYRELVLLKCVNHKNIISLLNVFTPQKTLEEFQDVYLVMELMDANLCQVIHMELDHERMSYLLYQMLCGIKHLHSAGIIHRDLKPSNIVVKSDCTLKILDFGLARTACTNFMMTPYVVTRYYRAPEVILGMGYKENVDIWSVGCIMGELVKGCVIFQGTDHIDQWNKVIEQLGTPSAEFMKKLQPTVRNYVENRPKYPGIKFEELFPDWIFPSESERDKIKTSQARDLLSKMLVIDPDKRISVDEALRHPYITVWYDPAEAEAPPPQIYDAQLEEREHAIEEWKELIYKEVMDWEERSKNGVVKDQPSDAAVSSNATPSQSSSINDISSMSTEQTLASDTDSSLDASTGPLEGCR
# Chain of protein kinases (human kinome) (Homo sapiens, UniProt P42684) (P42684 whole entry): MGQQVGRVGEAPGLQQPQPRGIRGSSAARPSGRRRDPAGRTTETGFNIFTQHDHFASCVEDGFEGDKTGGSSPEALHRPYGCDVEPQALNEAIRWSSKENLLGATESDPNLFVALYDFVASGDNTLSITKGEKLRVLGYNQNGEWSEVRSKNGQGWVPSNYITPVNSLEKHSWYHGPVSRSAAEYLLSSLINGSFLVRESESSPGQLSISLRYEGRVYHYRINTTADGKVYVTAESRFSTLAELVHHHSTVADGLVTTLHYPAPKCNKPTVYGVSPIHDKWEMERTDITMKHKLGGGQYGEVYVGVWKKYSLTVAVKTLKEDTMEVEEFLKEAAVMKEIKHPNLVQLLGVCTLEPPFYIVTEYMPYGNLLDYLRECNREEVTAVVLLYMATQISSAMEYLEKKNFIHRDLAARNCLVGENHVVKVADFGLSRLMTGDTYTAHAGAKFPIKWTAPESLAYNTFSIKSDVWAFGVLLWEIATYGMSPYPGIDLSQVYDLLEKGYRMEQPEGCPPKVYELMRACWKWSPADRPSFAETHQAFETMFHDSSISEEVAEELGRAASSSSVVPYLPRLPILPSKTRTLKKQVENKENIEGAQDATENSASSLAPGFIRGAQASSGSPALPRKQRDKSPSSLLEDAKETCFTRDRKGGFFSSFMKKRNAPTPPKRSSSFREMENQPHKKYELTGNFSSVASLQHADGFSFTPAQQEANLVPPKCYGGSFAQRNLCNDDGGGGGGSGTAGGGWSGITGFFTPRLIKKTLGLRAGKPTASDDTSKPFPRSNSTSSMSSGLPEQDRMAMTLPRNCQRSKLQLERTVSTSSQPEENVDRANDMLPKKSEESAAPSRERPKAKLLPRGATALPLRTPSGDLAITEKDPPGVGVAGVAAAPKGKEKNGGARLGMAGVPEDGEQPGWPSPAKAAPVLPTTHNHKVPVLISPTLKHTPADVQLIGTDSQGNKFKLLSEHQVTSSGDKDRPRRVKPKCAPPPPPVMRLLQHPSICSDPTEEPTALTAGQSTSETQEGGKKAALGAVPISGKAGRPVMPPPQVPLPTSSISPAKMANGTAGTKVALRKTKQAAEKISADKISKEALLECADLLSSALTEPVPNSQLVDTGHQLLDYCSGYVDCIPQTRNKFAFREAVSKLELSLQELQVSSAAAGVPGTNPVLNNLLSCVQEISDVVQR
# Chain of protein kinases (human kinome) (Homo sapiens, UniProt P07947) (P07947 whole entry): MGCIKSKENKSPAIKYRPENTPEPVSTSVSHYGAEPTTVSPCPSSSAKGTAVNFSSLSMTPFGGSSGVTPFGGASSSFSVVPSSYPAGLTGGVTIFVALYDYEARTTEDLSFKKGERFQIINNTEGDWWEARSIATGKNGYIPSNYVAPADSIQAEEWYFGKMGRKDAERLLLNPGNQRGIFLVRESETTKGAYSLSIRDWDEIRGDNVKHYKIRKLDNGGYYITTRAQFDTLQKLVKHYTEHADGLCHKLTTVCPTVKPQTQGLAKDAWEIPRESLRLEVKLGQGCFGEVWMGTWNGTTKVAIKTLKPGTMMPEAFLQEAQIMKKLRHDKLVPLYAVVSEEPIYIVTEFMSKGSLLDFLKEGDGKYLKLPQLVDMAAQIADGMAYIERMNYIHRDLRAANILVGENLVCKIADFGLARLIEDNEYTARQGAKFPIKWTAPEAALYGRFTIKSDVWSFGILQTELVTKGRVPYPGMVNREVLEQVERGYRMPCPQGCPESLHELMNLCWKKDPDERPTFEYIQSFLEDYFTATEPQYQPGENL
# Chain of protein kinases (human kinome) (Homo sapiens, UniProt P51812) (P51812 whole entry): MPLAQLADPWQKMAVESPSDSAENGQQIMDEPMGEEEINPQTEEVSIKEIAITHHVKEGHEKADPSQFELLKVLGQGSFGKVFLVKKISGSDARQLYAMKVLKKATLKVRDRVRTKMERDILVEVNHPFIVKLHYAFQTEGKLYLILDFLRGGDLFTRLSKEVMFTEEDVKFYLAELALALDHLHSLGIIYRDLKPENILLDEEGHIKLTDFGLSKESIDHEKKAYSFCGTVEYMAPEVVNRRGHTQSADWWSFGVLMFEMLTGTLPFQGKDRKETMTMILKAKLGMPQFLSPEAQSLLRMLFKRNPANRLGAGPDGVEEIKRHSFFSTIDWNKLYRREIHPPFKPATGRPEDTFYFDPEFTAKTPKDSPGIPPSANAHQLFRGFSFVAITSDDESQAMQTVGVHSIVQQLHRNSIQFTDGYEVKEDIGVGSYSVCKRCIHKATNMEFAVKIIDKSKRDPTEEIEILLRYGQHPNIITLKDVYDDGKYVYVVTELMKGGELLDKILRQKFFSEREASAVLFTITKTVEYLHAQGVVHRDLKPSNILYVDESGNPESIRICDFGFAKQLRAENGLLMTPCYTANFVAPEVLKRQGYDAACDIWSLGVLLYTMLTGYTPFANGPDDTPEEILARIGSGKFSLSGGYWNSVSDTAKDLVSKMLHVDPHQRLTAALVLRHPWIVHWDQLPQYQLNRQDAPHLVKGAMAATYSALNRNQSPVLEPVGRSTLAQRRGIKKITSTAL
# Chain of protein kinases (human kinome) (Homo sapiens, UniProt Q07912) (Q07912 whole entry): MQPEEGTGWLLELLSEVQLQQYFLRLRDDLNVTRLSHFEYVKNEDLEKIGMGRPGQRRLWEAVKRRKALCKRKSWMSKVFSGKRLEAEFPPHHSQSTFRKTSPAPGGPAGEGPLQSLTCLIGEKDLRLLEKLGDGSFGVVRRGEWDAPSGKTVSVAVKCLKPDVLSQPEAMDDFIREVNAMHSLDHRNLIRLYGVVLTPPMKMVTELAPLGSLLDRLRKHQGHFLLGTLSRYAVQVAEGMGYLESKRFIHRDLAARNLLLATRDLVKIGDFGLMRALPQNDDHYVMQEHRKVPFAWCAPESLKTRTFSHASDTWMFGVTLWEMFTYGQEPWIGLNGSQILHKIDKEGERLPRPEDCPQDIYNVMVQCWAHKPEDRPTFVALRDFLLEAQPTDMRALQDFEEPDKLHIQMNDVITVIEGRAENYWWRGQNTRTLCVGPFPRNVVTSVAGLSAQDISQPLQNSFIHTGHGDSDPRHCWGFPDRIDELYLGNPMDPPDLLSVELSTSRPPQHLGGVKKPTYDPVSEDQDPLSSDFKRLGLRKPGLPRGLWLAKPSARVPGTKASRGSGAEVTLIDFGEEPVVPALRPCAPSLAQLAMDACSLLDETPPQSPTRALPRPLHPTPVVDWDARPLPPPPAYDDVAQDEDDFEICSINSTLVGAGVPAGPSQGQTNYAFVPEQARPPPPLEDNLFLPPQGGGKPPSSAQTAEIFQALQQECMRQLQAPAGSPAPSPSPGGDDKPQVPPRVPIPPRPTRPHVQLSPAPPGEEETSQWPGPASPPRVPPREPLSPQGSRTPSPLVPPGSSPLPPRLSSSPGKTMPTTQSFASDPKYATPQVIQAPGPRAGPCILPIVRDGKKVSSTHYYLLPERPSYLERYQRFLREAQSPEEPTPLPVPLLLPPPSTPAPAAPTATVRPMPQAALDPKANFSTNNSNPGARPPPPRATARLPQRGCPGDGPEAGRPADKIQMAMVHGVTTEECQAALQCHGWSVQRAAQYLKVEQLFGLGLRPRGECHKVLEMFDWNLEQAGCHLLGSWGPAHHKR
smiles,measurement,setting,value
CC(=O)c1c(C)c2cnc(Nc3ccc(N4CCN(CCOCCOCCOCCNC(=O)COc5cccc6c5C(=O)N(C5CCC(=O)NC5=O)C6=O)CC4)cn3)nc2n(C2CCCC2)c1=O (centres unmarked) [BSJ.03.123],logFC,[1]; experiment wp084,−0.5666
same,logFC PDK1,[1]; experiment wp084,−0.5666
same,logFC PDK2,[2]; experiment wp084,−0.3615
same,logFC PDK2 (Q15119-1),[2]; experiment wp084,−0.3615
same,logFC NADK2,[3]; experiment wp084,−0.4839
same,logFC COQ8A (Q8N160-1),[4]; experiment wp084,−0.4611
same,logFC COQ8A (Q8NI60-1),[4]; experiment wp084,−0.4611
O=C(COc1cccc2c1C(=O)N(C1CCC(=O)NC1=O)C2=O)NCCCCCCCC(=O)NC1(c2ccc(-c3nc4ccn5c(=O)[nH]nc5c4cc3-c3ccccc3)cc2)CCC1 (centres unmarked) [INY.01.140.1],logFC,[1]; experiment wp081,−0.4328
same,logFC PDK1,[1]; experiment wp081,−0.4328
same,logFC PDK2,[2]; experiment wp081,−0.6094
same,logFC PDK2 (Q15119-1),[2]; experiment wp081,−0.6094
same,logFC NADK2,[3]; experiment wp081,−0.3886
Cc1ccc(NC(=O)c2cccc(C(F)(F)F)c2)cc1N1Cc2cnc(Nc3ccc(N4CCN(CCCOc5cccc6c5C(=O)N(C5CCC(=O)NC5=O)C6=O)CC4)nc3)nc2N(C)C1=O (centres unmarked) [DB0662],logFC,[5],−0.8025
same,logFC,[5]; direction down,−0.8025
same,logFC,"[6]; ABL2 (P42684) protein abundance, degrader vs DMSO, down",−1.207
same,logFC ABL2 (P42684),[6]; Experiment wp168,−1.207
same,logFC,[7],−2.611
same,logFC MAPK9,[7],−2.611
same,logFC,[8],−0.452
same,logFC,[8]; direction down,−0.452
same,logFC TNK2 (Q07912-1),"[9]; Experiment wp168, direction down",−0.6943
same,logFC TNK2,"[9]; TNK2 (Q07912-1), experiment wp168",−0.6943
same,logFC,"[10]; MAPK14 (Q16539), experiment wp168",−1.002
same,logFC MAPK14,"[10]; MAPK14, accession Q16539, experiment wp166, direction of change down",−1.002
C=CCn1c(=O)c2cnc(Nc3ccc(N4CCN(CCCNc5cccc6c5C(=O)N(C5CCC(=O)NC5=O)C6=O)CC4)cc3)nc2n1-c1cccc(C(C)(C)O)n1 (centres unmarked) [ZNL.02.096],logFC,[1]; experiment wp056,−0.3685
same,logFC PDK1,[1]; experiment wp056,−0.3685
same,logFC PDK2,[2]; experiment wp056,−0.5561
same,logFC PDK2,[2]; experiment wp118,−0.37
same,logFC PDK2 (Q15119-1),[2]; experiment wp056,−0.5561
same,logFC PDK2 (Q15119-1),[2]; experiment wp118,−0.37
same,logFC NADK2,[3]; experiment wp118,−0.4004
same,logFC COQ8A (Q8N160-1),[4]; experiment wp056,−0.4317
same,logFC COQ8A (Q8NI60-1),[4]; experiment wp056,−0.4317
same,logFC COQ8A (Q8N160-1),[4]; experiment wp118,−0.423
same,logFC COQ8A (Q8NI60-1),[4]; experiment wp118,−0.423
CN(C)C(=O)c1cc2cnc(Nc3ccc(N4CCN(CCCCNC(=O)COc5cccc6c5C(=O)N(C5CCC(=O)NC5=O)C6=O)CC4)cn3)nc2n1C1CCCC1 (centres unmarked) [BSJ.04.132],logFC,[1]; experiment wp084,−0.7569
same,logFC PDK1,[1]; experiment wp084,−0.7569
same,logFC PDK2,[2]; experiment wp084,−0.5289
same,logFC PDK2 (Q15119-1),[2]; experiment wp084,−0.5289
same,logFC NADK2,[3]; experiment wp084,−0.5591
same,logFC COQ8A (Q8N160-1),[4]; experiment wp084,−0.5939
same,logFC COQ8A (Q8NI60-1),[4]; experiment wp084,−0.6939
CC(C)(C)c1nc(-c2cccc(NS(=O)(=O)c3c(F)cccc3F)c2F)c(-c2ccnc(NCCOCCNC(=O)CCOCCOCCNc3cccc4c3CN(C3CCC(=O)NC3=O)C4=O)n2)s1 (centres unmarked) [DD.03.107],logFC,"[1]; experiment wp147, 1 uM",−0.4722
same,logFC PDK1,"[1]; experiment wp147, 1 uM",−0.4722
same,logFC,"[1]; experiment wp147, 2 uM",−0.4534
same,logFC PDK1,"[1]; experiment wp147, 2 uM",−0.4534
same,logFC,"[1]; experiment wp147, 4 uM",−1.108
same,logFC PDK1,"[1]; experiment wp147, 4 uM",−1.108
same,logFC PDK2,[2]; experiment wp137,−0.3383
same,logFC PDK2,"[2]; experiment wp147, 1 uM",−0.4963
same,logFC PDK2,"[2]; experiment wp147, 2 uM",−0.5351
same,logFC PDK2,"[2]; experiment wp147, 4 uM",−0.9269
same,logFC PDK2 (Q15119-1),[2]; experiment wp137,−0.3383
same,logFC PDK2 (Q15119-1),"[2]; experiment wp147, 1 uM",−0.4963
same,logFC PDK2 (Q15119-1),"[2]; experiment wp147, 2 uM",−0.5351
same,logFC PDK2 (Q15119-1),"[2]; experiment wp147, 4 uM",−0.9269
same,logFC NADK2,"[3]; experiment wp147, 1 uM",−0.5404
same,logFC NADK2,"[3]; experiment wp147, 2 uM",−0.4442
same,logFC NADK2,"[3]; experiment wp147, 4 uM",−0.9504
same,logFC COQ8A (Q8N160-1),"[4]; experiment wp147, 1 uM",−0.6678
same,logFC COQ8A (Q8NI60-1),"[4]; experiment wp147, 1 uM",−0.6678
same,logFC COQ8A (Q8N160-1),"[4]; experiment wp147, 2 uM",−0.6288
same,logFC COQ8A (Q8NI60-1),"[4]; experiment wp147, 2 uM",−0.6288
same,logFC COQ8A (Q8N160-1),"[4]; experiment wp147, 4 uM",−1.121
same,logFC COQ8A (Q8NI60-1),"[4]; experiment wp147, 4 uM",−1.121
